Measurements from patent US20260297131A1, “COMPOSITIONS AND METHODS FOR PEPTIDE-BASED MODULATORS OF HUMAN PAPILLOMAVIRUS ONCOPROTEIN E6” (priority 2023, published 2026).
Like-named read-outs stand apart in the source and are kept apart here. Square brackets hold non-standard residues; d marks the D form. Peptide text beside a SMILES is read from it. * marks the point of attachment. Acetyl(9-fluorenyl) = O=C(CC1c2ccccc2-c2ccccc21)*; Anthracene1carbonyl = O=C(c1cccc2cc3ccccc3cc12)*; 2Nal = N[C@@H](Cc1ccc2ccccc2c1)C(=O)O; Gly(cPent) = N[C@H](C(=O)O)C1CCCC1; Aad = N[C@@H](CCCC(=O)O)C(=O)O; Cba = N[C@@H](CC1CCC1)C(=O)O; Aib = CC(C)(N)C(=O)O; Dha = C=C(N)C(=O)O

What was measured:
MBP-16E6 [1] = molecular target: T1, MBP-16E6 (Human papillomavirus 16, UniProt P03126, C104S/C118S/C147S/C87S); details: for crosslinking to MBP-16E6: LC-MS
MBP-16E6 [2] = molecular target: T1, MBP-16E6; details: 1 μM MBP-16E6, Dha peptide mixture 12 μM, 2 h, 37° C.
MBP-16E6 [3] = molecular target: T1, MBP-16E6
MBP-16E6 L57A = MBP-16E6 L57A (Human papillomavirus 16, UniProt P03126, C104S/C118S/C147S/C87S/L57A); details: 10 μM reactide 18
MBP-16E6 C58S = MBP-16E6 C58S (Human papillomavirus 16, UniProt P03126, C104S/C118S/C147S/C58S/C87S); details: 12 h, PBS, 37° C.
MBP-16E6 [4] = molecular target: T1, MBP-16E6; remark: listed apart in the source
THRA = molecular target: T2, THRA (Homo sapiens, UniProt P10827); assay type: binding
T2 sequence (P10827 148-410 limits assumed): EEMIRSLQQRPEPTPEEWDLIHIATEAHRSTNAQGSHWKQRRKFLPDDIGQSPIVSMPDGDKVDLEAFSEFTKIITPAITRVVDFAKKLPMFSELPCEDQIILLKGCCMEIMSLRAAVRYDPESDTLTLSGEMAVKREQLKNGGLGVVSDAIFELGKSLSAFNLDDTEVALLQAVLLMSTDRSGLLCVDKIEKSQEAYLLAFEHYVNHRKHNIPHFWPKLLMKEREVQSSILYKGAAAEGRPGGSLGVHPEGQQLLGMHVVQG

16E6/E6AP = 16E6/E6AP (Human papillomavirus 16, UniProt P03126, C104S/C118S/C147S/C87S); details: 1 μM MBP-16E6
[5] = molecular target: bovine serum albumin (BSA) (Bos taurus, UniProt P02769); experiment: Crosslinking in a protein mixture, BSA; assay type: binding; details: 10 μM peptide, 37° C., 12 h
Sequence of bovine serum albumin (BSA) (P02769 25-607): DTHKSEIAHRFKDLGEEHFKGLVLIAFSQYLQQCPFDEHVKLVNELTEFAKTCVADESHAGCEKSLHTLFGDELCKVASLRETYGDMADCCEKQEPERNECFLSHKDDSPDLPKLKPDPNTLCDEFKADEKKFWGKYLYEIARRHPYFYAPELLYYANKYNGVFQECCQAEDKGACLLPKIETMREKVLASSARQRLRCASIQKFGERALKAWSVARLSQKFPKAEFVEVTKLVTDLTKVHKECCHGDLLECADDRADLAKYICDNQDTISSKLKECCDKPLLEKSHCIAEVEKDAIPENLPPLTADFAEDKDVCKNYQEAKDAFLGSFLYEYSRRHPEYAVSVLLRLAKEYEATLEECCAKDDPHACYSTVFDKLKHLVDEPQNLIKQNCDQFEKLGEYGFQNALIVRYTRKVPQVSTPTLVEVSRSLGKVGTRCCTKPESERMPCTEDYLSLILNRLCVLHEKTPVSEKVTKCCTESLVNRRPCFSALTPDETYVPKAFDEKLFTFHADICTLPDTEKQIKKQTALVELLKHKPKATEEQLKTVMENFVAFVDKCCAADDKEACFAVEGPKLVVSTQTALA

Sumo-MDM2 = Sumo-MDM2 (Homo sapiens, UniProt Q00987); experiment: Crosslinking in a protein mixture, Sumo-MDM2; assay type: binding; details: 10 μM peptide, 37° C., 12 h
Sequence of Sumo-MDM2 (Q00987 25-109): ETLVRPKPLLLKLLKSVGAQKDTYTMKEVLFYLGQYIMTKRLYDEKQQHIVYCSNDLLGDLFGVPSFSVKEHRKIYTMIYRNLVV

## C=C(NC(=O)[C@H](CC(C)C)NC(=O)[C@H](CC1CCC1)NC(=O)[C@H](CCC(=O)O)NC(=O)C(C)(C)NC(=O)[C@H](CC(C)C)NC(=O)[C@@H](NC(=O)[C@H](Cc1ccc2ccccc2c1)NC(=O)[C@@H](N)CCCC(=O)O)C1CCCC1)C(=O)N[C@@H](CCC(=O)O)C(=O)N[C@@H](CCC(=O)O)C(=O)N[C@@H](CCCNC(=N)N)C(N)=O [peptide 18] (H-[Aad][2Nal][Gly(cPent)]L[Aib]E[Cba]L[Dha]EER-NH2)
MBP-16E6 [1]; 10 μM reactide, 1 μM MBP-16E6, PBS, 37° C., 2 h
  mono-crosslinking: > 95%
MBP-16E6 [1]
  crosslinking to MBP-16E6: Quantitative mono-crosslinked
MBP-16E6 [2]
  mono-crosslink yield in competitive mixture: 83%
MBP-16E6 [3]
  improved affinity compared to parent reactide ELT-DHA9G: 50 fold
MBP-16E6 L57A
  crosslinking to L57A: no crosslinking
MBP-16E6 C58S; 10 μM reactide 18
  crosslinking to C58S: No crosslinking
MBP-16E6 [4]; kinetic study, kinact/Ki
  improvement over E3 (ELT-DHA9G): 50 fold
MBP-16E6 [4]; role: inhibitor
  kinact/Ki: 22700 M⁻¹ s⁻¹
MBP-16E6 [4]; role: inhibitor, first-order rate constant, steady-state approximation
  kinact: 0.018 s⁻¹

## C=C(NC(=O)[C@H](CC(C)C)NC(=O)[C@H](CC(C)C)NC(=O)[C@H](CCC(=O)O)NC(=O)[C@H](CCC(N)=O)NC(=O)[C@H](CC(C)C)NC(=O)[C@@H](NC(=O)[C@H](CC(C)C)NC(=O)[C@H](CCC(=O)O)NC(=O)[C@H](C)NC(=O)[C@H](CO)NC(=O)[C@H](CCC(N)=O)NC(=O)[C@@H]1CCCN1C(=O)[C@@H](NC(=O)CC1c2ccccc2-c2ccccc21)[C@@H](C)CC)[C@@H](C)O)C(=O)N[C@@H](CCCNC(=N)N)C(=O)N[C@@H](CCCNC(=N)N)C(=O)N[C@@H](CCCCN)C(=O)N[C@@H](CCCCN)C(=O)N[C@@H](CCCCNC(=O)c1cccc2cc3ccccc3cc12)C(N)=O [reactide 13] ({Acetyl(9-fluorenyl)}-IPQSAELTLQELL[Dha]RRKKK(Anthracene1carbonyl)-NH2)
MBP-16E6 [1]
  crosslinking to MBP-16E6: Quantitative mono-crosslinked
MBP-16E6 [1]; protein mixture with BSA and Sumo-MDM2 (1 μM each), 10 μM peptide, 37° C., 12 h
  mono-crosslinked conversion of 16E6 in protein mixture: > 95%
THRA
  crosslink to THRA: no crosslink
16E6/E6AP
  BLI response signal to immobilized E6AP protein: significantly decreased BLI response signal
[5]
  modification of BSA: no observable modifications
Sumo-MDM2
  modification of MDM2: no observable modifications
MBP-16E6 C58S; 3 μM peptide
  crosslinking to C58S: No crosslinking
MBP-16E6 C58S; 3 μM peptide, listed as peptide 13
  crosslinking to C58S: no appreciable amount of reaction product
